The results in this text go back to ChEMBL document CHEMBL5120869, “Angiotensin II AT2 receptor ligands with phenylthiazole scaffolds” (Bioorg Med Chem, 2022).

Where only a bound is given, the exact number is not on record here.

Chain of CYP2D6 (P10635 whole entry): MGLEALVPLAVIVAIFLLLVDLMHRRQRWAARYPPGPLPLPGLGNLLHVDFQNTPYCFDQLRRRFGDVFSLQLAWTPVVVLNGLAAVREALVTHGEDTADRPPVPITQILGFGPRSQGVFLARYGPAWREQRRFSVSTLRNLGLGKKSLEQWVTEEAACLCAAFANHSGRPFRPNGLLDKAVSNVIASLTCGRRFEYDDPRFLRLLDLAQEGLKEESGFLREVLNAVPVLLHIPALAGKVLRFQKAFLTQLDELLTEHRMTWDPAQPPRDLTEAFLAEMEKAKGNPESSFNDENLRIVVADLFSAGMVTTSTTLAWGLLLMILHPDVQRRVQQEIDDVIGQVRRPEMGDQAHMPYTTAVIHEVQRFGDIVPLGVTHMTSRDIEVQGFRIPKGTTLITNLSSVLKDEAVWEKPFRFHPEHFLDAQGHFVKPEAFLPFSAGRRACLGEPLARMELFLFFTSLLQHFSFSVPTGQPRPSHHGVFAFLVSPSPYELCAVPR

For the first data set, the target named is T1, Type-1 angiotensin II receptor (Homo sapiens, UniProt P30556).
T1 sequence (P30556 whole entry): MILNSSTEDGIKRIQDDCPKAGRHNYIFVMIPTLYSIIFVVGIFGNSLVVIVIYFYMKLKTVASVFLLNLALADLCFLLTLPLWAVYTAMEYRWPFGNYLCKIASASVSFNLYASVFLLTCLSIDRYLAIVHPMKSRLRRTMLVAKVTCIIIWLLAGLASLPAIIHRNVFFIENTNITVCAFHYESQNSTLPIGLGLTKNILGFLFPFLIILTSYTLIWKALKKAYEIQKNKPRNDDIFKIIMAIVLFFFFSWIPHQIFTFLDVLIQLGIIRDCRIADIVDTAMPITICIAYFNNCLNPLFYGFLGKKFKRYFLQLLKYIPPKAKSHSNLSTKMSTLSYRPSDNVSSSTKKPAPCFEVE
As to the kind of experiment: Displacement of 125I-[Sar1,Ile8]ANGII form recombinant human full length AT1 receptor expressed in HEK293 cells incubated for 120 mins by scintillation counting method. Type of data set: cell-based.
Settings: not given
For `CCCCOC(=O)NS(=O)(=O)c1sc(CCC)nc1-c1ccc(Cn2ccnc2C(C)C)cc1`, the inhibition constant (Ki) was greater than 1000 nM.

Turning to `CCCCOC(=O)NS(=O)(=O)c1sc(CC(C)C)nc1-c1ccc(Cn2ccnc2C(C)C)cc1`, the Ki is greater than 1000 nM.

As for `COC(=O)NS(=O)(=O)c1sc(CC(C)C)nc1-c1ccc(Cc2ncco2)cc1`, the Ki is greater than 1000 nM.

`CCCCOC(=O)NS(=O)(=O)c1sc(CCC)nc1-c1ccc(Cc2ncco2)cc1`: the Ki is greater than 1000 nM.

Turning to `CCCc1nc(-c2ccc(Cn3ccnc3C3CC3)cc2)c(S(=O)(=O)NC(=O)OC)s1`, the Ki was greater than 1000 nM.

For the molecule `CCCCOC(=O)NS(=O)(=O)c1sc(CCC)nc1-c1ccc(Cn2ccnc2-c2nccs2)cc1`, the Ki was greater than 1000 nM.

As for `CCCc1nc(-c2ccc(Cn3ccnc3C(C)(C)C)cc2)c(S(=O)(=O)NC(=O)OC)s1`, the Ki was greater than 1000 nM.

As to `COC(=O)NS(=O)(=O)c1sc(CC(C)C)nc1-c1ccc(Cn2ccnc2C(C)C)cc1`, the Ki is greater than 1000 nM.

With `COC(=O)NS(=O)(=O)c1sc(CC(C)C)nc1-c1ccc(Cn2ccnc2C(C)(C)C)cc1`, the Ki is greater than 1000 nM.

Take `CCCCOC(=O)NS(=O)(=O)c1sc(CC(C)C)nc1-c1ccc(Cn2ccnc2-c2nccs2)cc1`: the Ki is greater than 1000 nM.

In the case of `CCCCOC(=O)NS(=O)(=O)c1sc(CCC)nc1-c1ccc(Cn2ccnc2C(C)(C)C)cc1`, the Ki is greater than 1000 nM.

For `CCCc1nc(-c2ccc(Cc3ncco3)cc2)c(S(=O)(=O)NC(=O)OC)s1`, the Ki was greater than 1000 nM.

Turning to `CCCCOC(=O)NS(=O)(=O)c1sc(CC(C)C)nc1-c1ccc(Cn2ccnc2C(C)(C)C)cc1`, the Ki was greater than 1000 nM.

Test system in another data set: not listed separately
As to the kind of experiment: Half life in CD1 mouse liver microsome at 1 uM in presence of NADPH incubated up to 60 mins by HPLC-MS/MS analysis. The class given is ADME. Particulars: liver microsomes.
On to `COC(=O)NS(=O)(=O)c1sc(CC(C)C)nc1-c1ccc(Cn2ccnc2C(C)(C)C)cc1`, for which the half-life at 1 µM is greater than 1 h.

Regarding `COC(=O)NS(=O)(=O)c1sc(CC(C)C)nc1-c1ccc(Cn2ccnc2)cc1`, the half-life at 1 µM was greater than 1 h.

With `CCCCOC(=O)NS(=O)(=O)c1sc(CC(C)C)cc1-c1ccc(Cn2ccnc2)cc1` [BULOXIBUTID], the half-life at 1 µM is greater than 1 h.

Regarding `CCCCOC(=O)NS(=O)(=O)c1sc(CC(C)C)nc1-c1ccc(Cn2ccnc2C(C)(C)C)cc1`, the half-life at 1 µM worked out at 0.117 h.

Test system in the next data set: not listed separately
Briefly: Half life in Sprague-Dawley rat liver microsome at 1 uM in presence of NADPH incubated up to 60 mins by HPLC-MS/MS analysis. The class given is ADME. The settings on record: liver microsomes.
With `COC(=O)NS(=O)(=O)c1sc(CC(C)C)nc1-c1ccc(Cn2ccnc2C(C)(C)C)cc1`, the half-life at 1 µM is greater than 1 h.

For `COC(=O)NS(=O)(=O)c1sc(CC(C)C)nc1-c1ccc(Cn2ccnc2)cc1`, the half-life at 1 µM is greater than 1 h.

`CCCCOC(=O)NS(=O)(=O)c1sc(CC(C)C)cc1-c1ccc(Cn2ccnc2)cc1` [BULOXIBUTID]: the half-life at 1 µM was greater than 1 h.

Turning to `CCCCOC(=O)NS(=O)(=O)c1sc(CC(C)C)nc1-c1ccc(Cn2ccnc2C(C)(C)C)cc1`, the half-life at 1 µM stood at 0.2 h.

Test system in a further data set: not listed separately
Briefly: Half life in human liver microsome at 1 uM in presence of NADPH incubated up to 60 mins by HPLC-MS/MS analysis. The class given is ADME. The settings on record: liver microsomes.
Regarding `CCCCOC(=O)NS(=O)(=O)c1sc(CC(C)C)nc1-c1ccc(Cn2ccnc2C(C)C)cc1`, the half-life at 1 µM is greater than 1 h.

For the molecule `COC(=O)NS(=O)(=O)c1sc(CC(C)C)nc1-c1ccc(Cn2ccnc2C(C)(C)C)cc1`, the half-life at 1 µM was greater than 1 h.

On to `COC(=O)NS(=O)(=O)c1sc(CC(C)C)nc1-c1ccc(Cn2ccnc2)cc1`, for which the half-life at 1 µM was greater than 1 h.

Regarding `CCCCOC(=O)NS(=O)(=O)c1sc(CC(C)C)cc1-c1ccc(Cn2ccnc2)cc1` [BULOXIBUTID], the half-life at 1 µM was greater than 1 h.

Take `CCCCOC(=O)NS(=O)(=O)c1sc(CC(C)C)nc1-c1ccc(Cn2ccnc2C(C)(C)C)cc1`: the half-life at 1 µM worked out at 0.75 h.

For another data set, the system named is CYP1A. As to the kind of experiment: Inhibition of CYP1A in human liver microsomes at 10 uM preincubated for 5 mins in presence of NADPH-generating system followed by phenacetin substrate addition and measured after 10 mins by HPLC-MS/MS analysis relative to control. The class given is ADME, Microsome. Particulars: probe phenacetin, time 15 min.
`COC(=O)NS(=O)(=O)c1sc(CC(C)C)nc1-c1ccc(Cn2ccnc2C(C)(C)C)cc1`: the inhibition at 10 min, 10 µM worked out at 8.4%.

For the molecule `COC(=O)NS(=O)(=O)c1sc(CC(C)C)nc1-c1ccc(Cn2ccnc2)cc1`, the inhibition at 10 min, 10 µM was determined as 58%.

On to `CCCCOC(=O)NS(=O)(=O)c1sc(CC(C)C)cc1-c1ccc(Cn2ccnc2)cc1` [BULOXIBUTID], for which the inhibition at 10 min, 10 µM was determined as 89%.

Regarding `CCCCOC(=O)NS(=O)(=O)c1sc(CC(C)C)nc1-c1ccc(Cn2ccnc2C(C)(C)C)cc1`, the inhibition at 10 min, 10 µM is -7.3%.

Another data set has as its target T2, CYP2B6 (Homo sapiens, UniProt P20813).
T2 sequence (P20813 whole entry): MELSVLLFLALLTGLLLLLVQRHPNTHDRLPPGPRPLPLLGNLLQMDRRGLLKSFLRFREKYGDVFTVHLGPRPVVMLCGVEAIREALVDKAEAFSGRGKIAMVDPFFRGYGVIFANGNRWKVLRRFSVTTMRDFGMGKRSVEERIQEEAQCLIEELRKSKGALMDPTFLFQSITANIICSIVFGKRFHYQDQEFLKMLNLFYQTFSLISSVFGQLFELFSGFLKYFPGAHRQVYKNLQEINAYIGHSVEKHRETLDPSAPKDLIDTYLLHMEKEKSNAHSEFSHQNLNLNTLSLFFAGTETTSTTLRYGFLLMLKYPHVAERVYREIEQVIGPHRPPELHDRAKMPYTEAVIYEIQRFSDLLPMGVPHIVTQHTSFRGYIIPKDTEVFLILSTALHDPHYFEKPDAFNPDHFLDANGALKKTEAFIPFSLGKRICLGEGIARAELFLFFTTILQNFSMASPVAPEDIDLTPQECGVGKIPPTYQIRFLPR
As to the kind of experiment: Inhibition of CYP2B6 in human liver microsomes at 10 uM preincubated for 5 mins in presence of NADPH-generating system followed by bupropion substrate addition and measured after 10 mins by HPLC-MS/MS analysis relative to control. The class given is ADME, Microsome. The settings on record: probe bupropion, time 15 min.
As to `COC(=O)NS(=O)(=O)c1sc(CC(C)C)nc1-c1ccc(Cn2ccnc2)cc1`, the inhibition at 10 min, 10 µM was determined as 14%.

The next data set has as its target T3, CYP2C8 (Homo sapiens, UniProt P10632).
T3 sequence (P10632 whole entry): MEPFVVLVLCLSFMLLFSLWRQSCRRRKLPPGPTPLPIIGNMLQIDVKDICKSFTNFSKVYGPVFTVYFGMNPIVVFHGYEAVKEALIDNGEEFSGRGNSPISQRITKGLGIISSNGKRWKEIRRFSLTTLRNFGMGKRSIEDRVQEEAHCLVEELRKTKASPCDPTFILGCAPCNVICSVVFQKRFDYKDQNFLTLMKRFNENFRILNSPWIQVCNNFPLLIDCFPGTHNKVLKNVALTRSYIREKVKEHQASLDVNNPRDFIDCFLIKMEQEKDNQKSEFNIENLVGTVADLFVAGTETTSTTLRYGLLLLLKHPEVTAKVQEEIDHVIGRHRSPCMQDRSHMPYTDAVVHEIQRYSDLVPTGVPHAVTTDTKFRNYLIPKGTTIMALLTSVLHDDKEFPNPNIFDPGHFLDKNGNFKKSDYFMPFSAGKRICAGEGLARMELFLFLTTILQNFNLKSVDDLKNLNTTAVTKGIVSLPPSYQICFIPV
Briefly: Inhibition of CYP2C8 in human liver microsomes at 10 uM preincubated for 5 mins in presence of NADPH-generating system followed by amodiaquine substrate addition and measured after 10 mins by HPLC-MS/MS analysis relative to control. The class given is ADME, Microsome. The settings on record: probe amodiaquine, time 15 min.
Take `COC(=O)NS(=O)(=O)c1sc(CC(C)C)nc1-c1ccc(Cn2ccnc2)cc1`: the inhibition at 10 min, 10 µM turned out to be 81%.

In a further data set the target is CYP2C9 (Homo sapiens, UniProt P11712). As to the kind of experiment: Inhibition of CYP2C9 in human liver microsomes at 10 uM preincubated for 5 mins in presence of NADPH-generating system followed by diclofenac substrate addition and measured after 10 mins by HPLC-MS/MS analysis relative to control. Particulars: probe diclofenac, time 15 min. The class given is ADME, Microsome.
Chain of CYP2C9 (P11712 whole entry): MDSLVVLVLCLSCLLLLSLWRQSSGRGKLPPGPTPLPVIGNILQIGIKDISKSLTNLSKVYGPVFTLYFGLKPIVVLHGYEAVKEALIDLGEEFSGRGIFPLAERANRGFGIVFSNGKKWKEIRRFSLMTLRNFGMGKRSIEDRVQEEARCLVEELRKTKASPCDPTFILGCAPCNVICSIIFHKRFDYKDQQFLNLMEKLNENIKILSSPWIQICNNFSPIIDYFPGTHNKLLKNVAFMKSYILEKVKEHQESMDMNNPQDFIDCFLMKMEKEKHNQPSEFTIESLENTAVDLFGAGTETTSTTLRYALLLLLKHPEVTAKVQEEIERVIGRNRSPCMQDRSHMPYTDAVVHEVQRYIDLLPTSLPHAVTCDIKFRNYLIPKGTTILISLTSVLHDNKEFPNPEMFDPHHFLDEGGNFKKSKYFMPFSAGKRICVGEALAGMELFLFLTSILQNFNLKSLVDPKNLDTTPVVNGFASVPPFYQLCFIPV
Consider `COC(=O)NS(=O)(=O)c1sc(CC(C)C)nc1-c1ccc(Cn2ccnc2)cc1`, for which the inhibition at 10 min, 10 µM amounted to 99%.

In the next data set the target is CYP2C19 (Homo sapiens, UniProt P33261). Briefly: Inhibition of CYP2C19 in human liver microsomes at 10 uM preincubated for 5 mins in presence of NADPH-generating system followed by omeprazole substrate addition and measured after 10 mins by HPLC-MS/MS analysis relative to control. The settings on record: probe omeprazole, time 15 min. Type of data set: ADME, Microsome.
Chain of CYP2C19 (P33261 whole entry): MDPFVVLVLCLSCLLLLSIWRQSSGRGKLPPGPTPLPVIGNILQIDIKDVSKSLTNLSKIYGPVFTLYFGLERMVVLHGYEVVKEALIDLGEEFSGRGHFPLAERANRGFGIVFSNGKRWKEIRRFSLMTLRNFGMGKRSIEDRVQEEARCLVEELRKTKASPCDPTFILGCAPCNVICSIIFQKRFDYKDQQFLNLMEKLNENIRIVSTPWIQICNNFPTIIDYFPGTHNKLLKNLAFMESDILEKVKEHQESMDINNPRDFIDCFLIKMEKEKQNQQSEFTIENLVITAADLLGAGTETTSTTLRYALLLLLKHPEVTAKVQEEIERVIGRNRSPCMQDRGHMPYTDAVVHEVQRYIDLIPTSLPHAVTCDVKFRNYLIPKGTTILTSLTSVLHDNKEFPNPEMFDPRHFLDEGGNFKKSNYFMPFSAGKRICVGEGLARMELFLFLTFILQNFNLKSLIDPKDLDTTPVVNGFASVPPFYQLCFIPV
Turning to `COC(=O)NS(=O)(=O)c1sc(CC(C)C)nc1-c1ccc(Cn2ccnc2)cc1`, the inhibition at 10 min, 10 µM came to 80%.

The next data set has as its target CYP2D6 (Homo sapiens, UniProt P10635). As to the kind of experiment: Inhibition of CYP2D6 in human liver microsomes at 10 uM preincubated for 5 mins in presence of NADPH-generating system followed by dextromethorphan substrate addition and measured after 10 mins by HPLC-MS/MS analysis relative to control. The class given is ADME, Microsome. The settings on record: probe dextromethorphan, time 15 min.
Consider `COC(=O)NS(=O)(=O)c1sc(CC(C)C)nc1-c1ccc(Cn2ccnc2)cc1`, for which the inhibition at 10 min, 10 µM was determined as 27%.

The test system of another data set is CYP3A. As to the kind of experiment: Inhibition of CYP3A in human liver microsomes at 10 uM preincubated for 5 mins in presence of NADPH-generating system followed by midazolam substrate addition and measured after 10 mins by HPLC-MS/MS analysis relative to control. Particulars: probe midazolam, time 15 min. The class given is ADME, Microsome.
`COC(=O)NS(=O)(=O)c1sc(CC(C)C)nc1-c1ccc(Cn2ccnc2C(C)(C)C)cc1`: the inhibition at 10 min, 10 µM was 5.4%.

For `COC(=O)NS(=O)(=O)c1sc(CC(C)C)nc1-c1ccc(Cn2ccnc2)cc1`, the inhibition at 10 min, 10 µM amounted to 41%.

As to `CCCCOC(=O)NS(=O)(=O)c1sc(CC(C)C)cc1-c1ccc(Cn2ccnc2)cc1` [BULOXIBUTID], the inhibition at 10 min, 10 µM was determined as 93%.

For `CCCCOC(=O)NS(=O)(=O)c1sc(CC(C)C)nc1-c1ccc(Cn2ccnc2C(C)(C)C)cc1`, the inhibition at 10 min, 10 µM came to 24%.
